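Method: 48-hour compound exposure of cells in 96-well plates, five concentrations, linear interpolation of endpoints. GI50 is the concentration that inhibits growth by half. At the TGI there is no net growth.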
How the values were obtained:
Experiment in all cases: DTP human tumour cell line panel, 48 h
EKVX NSCLC = tested on: EKVX NSCLC
CAKI-1 renal = tested on: CAKI-1 renal
NCI-H460 lung = tested on: NCI-H460 lung
UACC-257 melanoma = tested on: UACC-257 melanoma
OVCAR-3 ovarian = tested on: OVCAR-3 ovarian
SF-295 CNS = tested on: SF-295 CNS
786-0 renal = tested on: 786-0 renal
UACC-62 melanoma = tested on: UACC-62 melanoma
MDA-MB-435 = tested on: MDA-MB-435
UO-31 renal = tested on: UO-31 renal
TK-10 renal = tested on: TK-10 renal
U251 CNS = tested on: U251 CNS
A549 NSCLC = tested on: A549 NSCLC
KM12 colon = tested on: KM12 colon
A498 renal = tested on: A498 renal
M14 melanoma = tested on: M14 melanoma
SNB-19 CNS = tested on: SNB-19 CNS
MDA-MB-231 breast = tested on: MDA-MB-231 breast
HOP-92 NSCLC = tested on: HOP-92 NSCLC
DU-145 prostate = tested on: DU-145 prostate
OVCAR-8 ovarian = tested on: OVCAR-8 ovarian
SK-MEL-2 melanoma = tested on: SK-MEL-2 melanoma
SK-OV-3 ovarian = tested on: SK-OV-3 ovarian
ACHN renal = tested on: ACHN renal
LOX IMVI melanoma = tested on: LOX IMVI melanoma
RXF 393 renal = tested on: RXF 393 renal
COLO 205 colon = tested on: COLO 205 colon
NCI/ADR-RES ovarian = tested on: NCI/ADR-RES ovarian
IGROV1 ovarian = tested on: IGROV1 ovarian
NCI-H522 lung = tested on: NCI-H522 lung
RPMI-8226 leukemia = tested on: RPMI-8226 leukemia
HT29 colon = tested on: HT29 colon
OVCAR-4 ovarian = tested on: OVCAR-4 ovarian
HCT-15 colon = tested on: HCT-15 colon
NCI-H23 lung = tested on: NCI-H23 lung
SK-MEL-5 melanoma = tested on: SK-MEL-5 melanoma
SN12C renal = tested on: SN12C renal
OVCAR-5 ovarian = tested on: OVCAR-5 ovarian
MALME-3M melanoma = tested on: MALME-3M melanoma
HCT-116 colon = tested on: HCT-116 colon
SK-MEL-28 melanoma = tested on: SK-MEL-28 melanoma
SF-539 CNS = tested on: SF-539 CNS
BT-549 breast = tested on: BT-549 breast
PC-3 prostate = tested on: PC-3 prostate
SNB-75 CNS = tested on: SNB-75 CNS
MCF7 breast = tested on: MCF7 breast
SW-620 colon = tested on: SW-620 colon
NCI-H226 lung = tested on: NCI-H226 lung
HCC-2998 colon = tested on: HCC-2998 colon
HS 578T breast = tested on: HS 578T breast
T-47D breast = tested on: T-47D breast
SF-268 CNS = tested on: SF-268 CNS

CCCCCCCCc1cc[n+](CC(=O)c2ccc(Br)cc2)cc1
GI50 (EKVX NSCLC): 1380 nM
TGI (EKVX NSCLC): 2800 nM
GI50 (CAKI-1 renal): 1370 nM
TGI (CAKI-1 renal): 2840 nM
GI50 (NCI-H460 lung): 1650 nM
TGI (NCI-H460 lung): 3070 nM
GI50 (UACC-257 melanoma): 1640 nM
TGI (UACC-257 melanoma): 3110 nM
GI50 (OVCAR-3 ovarian): 1440 nM
TGI (OVCAR-3 ovarian): 2750 nM
GI50 (SF-295 CNS): 1440 nM
TGI (SF-295 CNS): 2830 nM
GI50 (786-0 renal): 1870 nM
TGI (786-0 renal): 3300 nM
GI50 (UACC-62 melanoma): 1440 nM
TGI (UACC-62 melanoma): 2760 nM
GI50 (MDA-MB-435): 1540 nM
TGI (MDA-MB-435): 2970 nM
GI50 (UO-31 renal): 1490 nM
TGI (UO-31 renal): 3190 nM
GI50 (TK-10 renal): 1400 nM
TGI (TK-10 renal): 2700 nM
GI50 (U251 CNS): 1470 nM
TGI (U251 CNS): 2790 nM
GI50 (A549 NSCLC): 1770 nM
TGI (A549 NSCLC): 3250 nM
GI50 (KM12 colon): 1490 nM
TGI (KM12 colon): 2810 nM
GI50 (A498 renal): 4420 nM
TGI (A498 renal): 18100 nM
GI50 (M14 melanoma): 1750 nM
TGI (M14 melanoma): 3240 nM
GI50 (SNB-19 CNS): 1590 nM
TGI (SNB-19 CNS): 3310 nM
GI50 (MDA-MB-231 breast): 1450 nM
TGI (MDA-MB-231 breast): 2850 nM
GI50 (HOP-92 NSCLC): 1470 nM
TGI (HOP-92 NSCLC): 4100 nM
GI50 (DU-145 prostate): 1510 nM
TGI (DU-145 prostate): 2860 nM
GI50 (OVCAR-8 ovarian): 1680 nM
TGI (OVCAR-8 ovarian): 3220 nM
GI50 (SK-MEL-2 melanoma): 1610 nM
TGI (SK-MEL-2 melanoma): 3030 nM
GI50 (SK-OV-3 ovarian): 1530 nM
TGI (SK-OV-3 ovarian): 2950 nM
GI50 (ACHN renal): 1640 nM
TGI (ACHN renal): 2990 nM
GI50 (LOX IMVI melanoma): 1570 nM
TGI (LOX IMVI melanoma): 2910 nM
GI50 (RXF 393 renal): 1690 nM
TGI (RXF 393 renal): 3170 nM
GI50 (COLO 205 colon): 1090 nM
TGI (COLO 205 colon): 2280 nM
GI50 (NCI/ADR-RES ovarian): 8770 nM
TGI (NCI/ADR-RES ovarian): 21900 nM
GI50 (IGROV1 ovarian): 1090 nM
TGI (IGROV1 ovarian): 2450 nM
GI50 (NCI-H522 lung): 1020 nM
TGI (NCI-H522 lung): 2260 nM
GI50 (RPMI-8226 leukemia): 1770 nM
TGI (RPMI-8226 leukemia): 3790 nM
GI50 (HT29 colon): 580 nM
TGI (HT29 colon): 1970 nM
GI50 (OVCAR-4 ovarian): 1110 nM
TGI (OVCAR-4 ovarian): 2310 nM
GI50 (HCT-15 colon): 1640 nM
TGI (HCT-15 colon): 3200 nM
GI50 (NCI-H23 lung): 1480 nM
TGI (NCI-H23 lung): 2990 nM
GI50 (SK-MEL-5 melanoma): 1510 nM
TGI (SK-MEL-5 melanoma): 2890 nM
GI50 (SN12C renal): 1550 nM
TGI (SN12C renal): 2980 nM
GI50 (OVCAR-5 ovarian): 1460 nM
TGI (OVCAR-5 ovarian): 2900 nM
GI50 (MALME-3M melanoma): 1690 nM
TGI (MALME-3M melanoma): 3500 nM
GI50 (HCT-116 colon): 1190 nM
TGI (HCT-116 colon): 2490 nM
GI50 (SK-MEL-28 melanoma): 1640 nM
TGI (SK-MEL-28 melanoma): 3040 nM
GI50 (SF-539 CNS): 1610 nM
TGI (SF-539 CNS): 2960 nM
GI50 (BT-549 breast): 2440 nM
TGI (BT-549 breast): 5520 nM
GI50 (PC-3 prostate): 1510 nM
TGI (PC-3 prostate): 3000 nM
GI50 (SNB-75 CNS): 1280 nM
TGI (SNB-75 CNS): 2540 nM
GI50 (MCF7 breast): 1520 nM
TGI (MCF7 breast): 2840 nM
GI50 (SW-620 colon): 1410 nM
TGI (SW-620 colon): 2770 nM
GI50 (NCI-H226 lung): 1510 nM
TGI (NCI-H226 lung): 3010 nM
GI50 (HCC-2998 colon): 1610 nM
TGI (HCC-2998 colon): 2960 nM
GI50 (HS 578T breast): 1860 nM
TGI (HS 578T breast): 3750 nM
GI50 (T-47D breast): 1640 nM
TGI (T-47D breast): 3140 nM
GI50 (SF-268 CNS): 1580 nM
TGI (SF-268 CNS): 2920 nM

— PubChem BioAssay (NCI)
